# Values of other authors as cited in PMC4832308 (Cancer, 2015).
# Key:
# patients [1] = settings: phase 1 study; cited from earlier work
# patients [2] = settings: phase 1 study, cited from earlier work
SMILES,best response SD rate (patients [1]) [%],patients with best response SD (patients [1]) [patients],patients with a response (patients [2]; MM) [patient],response rate (patients [2]; MM) [%],response duration (patients [2]; patient with MM) [months],patients with SD (patients [2]) [patients]
COc1ccc(-c2ccc3c(N4CCOC[C@@H]4C)nc(N4CCOC[C@@H]4C)nc3n2)cc1CO [AZD8055],14.3,7,–,–,–,–
CC(C)n1nc(-c2ccc3oc(N)nc3c2)c2c(N)ncnc21 [MLN0128],–,–,1,4,~2,15
